# Experimental data: US8889676B2, “3-ureidoisoquinolin-8-yl derivatives” (Actelion Pharmaceuticals Ltd., priority 2011, dated 2014)
# Test system: S. pneumoniae ATCC 49619
# Test: Minimal inhibitory concentration (MIC) by broth microdilution (CLSI M7-A7)
# Assay type: cell-based, Streptococcus pneumoniae
# Conditions: Streptococcus pneumoniae, ATCC49619; cation-adjusted Mueller Hinton Broth supplemented with 3% (v/v) lysed horse blood; microdilution method
# Method in brief: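 Broth microdilution per CLSI M7-A7 in cation-adjusted Mueller-Hinton broth with 3% (v/v) lysed horse blood for S. pneumoniae. MIC in mg/l.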
row,MIC,SMILES
1,1 mg/L,"CCNC(=O)Nc1cc2c(-c3cc(C)nc(C)c3)ccc(CNC(=O)OCCOC)c2cn1 [Example 116, [5-(2,6-dimethyl-pyridin-4-yl)-3-(3-ethyl-ureido)-isoquinolin-8-ylmethyl]-carbamic acid 2-methoxy-ethyl ester]"
2,1 mg/L,"CCNC(=O)Nc1cc2c(-c3ccnc(OC)c3)ccc(CNC(=O)OCCOC)c2cn1 [Example 117, [3-(3-ethyl-ureido)-5-(2-methoxy-pyridin-4-yl)-isoquinolin-8-ylmethyl]-carbamic acid 2-methoxy-ethyl ester]"
3,0.5 mg/L,"CCNC(=O)Nc1cc2c(-c3ccnc(F)c3)ccc(CNC(=O)OCCOC)c2cn1 [Example 118, [3-(3-ethyl-ureido)-5-(2-fluoro-pyridin-4-yl)-isoquinolin-8-ylmethyl]-carbamic acid 2-methoxy-ethyl ester]"
4,0.5 mg/L,"CCNC(=O)Nc1cc2c(-c3ccnc(C)c3)ccc(CNC(=O)OCCOC)c2cn1 [Example 119, [3-(3-ethyl-ureido)-5-(2-methyl-pyridin-4-yl)-isoquinolin-8-ylmethyl]-carbamic acid 2-methoxy-ethyl ester]"
5,1 mg/L,"CCNC(=O)Nc1cc2c(-c3ccnc(C#N)c3)ccc(CNC(=O)OCCOC)c2cn1 [Example 120, [5-(2-cyano-pyridin-4-yl)-3-(3-ethyl-ureido)-isoquinolin-8-ylmethyl]-carbamic acid 2-methoxy-ethyl ester]"
6,1 mg/L,"CCNC(=O)Nc1cc2c(-c3ccncc3C)ccc(CNC(=O)OCCOC)c2cn1 [Example 121, [3-(3-ethyl-ureido)-5-(3-methyl-pyridin-4-yl)-isoquinolin-8-ylmethyl]-carbamic acid 2-methoxy-ethyl ester]"

# Continued, compound first:
row,SMILES,MIC
1,"CCNC(=O)Nc1cc2c(-c3ccncc3)ccc(CNC(=O)OCC#CCO)c2cn1 [Example 106, [3-(3-ethyl-ureido)-5-pyridin-4-yl-isoquinolin-8-ylmethyl]-carbamic acid 4-hydroxy-but-2-ynyl ester]",0.25 mg/L
2,"CCNC(=O)Nc1cc2c(-c3ccncc3)ccc(CNC(=O)OCCO)c2cn1 [Example 107, [3-(3-ethyl-ureido)-5-pyridin-4-yl-isoquinolin-8-ylmethyl]-carbamic acid 2-hydroxy-ethyl ester]",1 mg/L
3,"CCNC(=O)Nc1cc2c(-c3ccncc3)ccc(CNC(=O)OCC#CCN)c2cn1 [Example 109, [3-(3-ethyl-ureido)-5-pyridin-4-yl-isoquinolin-8-ylmethyl]-carbamic acid 4-amino-but-2-ynyl ester]",2 mg/L
4,"CCNC(=O)Nc1cc2c(-c3ccncc3)ccc(CNC(=O)OCCCN3CCOCC3)c2cn1 [Example 110, [3-(3-ethyl-ureido)-5-pyridin-4-yl-isoquinolin-8-ylmethyl]-carbamic acid 3-morpholin-4-yl-propyl ester]",2 mg/L
5,"CCNC(=O)Nc1cc2c(Cl)ccc(CNC(=O)OCCOC)c2cn1 [Example 111, [5-chloro-3-(3-ethyl-ureido)-isoquinolin-8-ylmethyl]-carbamic acid 2-methoxy-ethyl ester]",0.5 mg/L
6,"C#CCOC(=O)NCc1ccc(Cl)c2cc(NC(=O)NCC)ncc12 [Example 112, [5-chloro-3-(3-ethyl-ureido)-isoquinolin-8-ylmethyl]-carbamic acid prop-2-ynyl ester]",0.5 mg/L
7,"CCNC(=O)Nc1cc2c(Cl)ccc(CNC(=O)OC(C)(C)C)c2cn1 [Example 113, [5-chloro-3-(3-ethyl-ureido)-isoquinolin-8-ylmethyl]-carbamic acid tert-butyl ester]",1 mg/L
8,"CCNC(=O)Nc1cc2c(-c3ccncc3)ccc(CNC(=O)OCCOC)c2cn1 [Example 114, [3-(3-ethyl-ureido)-5-pyridin-4-yl-isoquinolin-8-ylmethyl]-carbamic acid 2-methoxy-ethyl ester]",0.5 mg/L
9,"CCNC(=O)Nc1cc2c(-c3ccnc(N)c3)ccc(CNC(=O)OCCOC)c2cn1 [Example 115, [5-(2-amino-pyridin-4-yl)-3-(3-ethyl-ureido)-isoquinolin-8-ylmethyl]-carbamic acid 2-methoxy-ethyl ester]",2 mg/L
